# Experimental data reported in patent publication US20150283233A1, “Compositions and Methods for Enhancing Immune Responses” (Gencia Corporation, priority 2012, published 2015).
# Tested on: MHC I
# Experiment: MHC I western blot of orthotopic MiaPaca-2 pancreatic xenografts, with or without gemcitabine
# Assay type: in vivo, BALB/c nude mouse
# Details: gemcitabine only, 40 mg/kg every 3 days, orthotopic MiaPaca-2 tumors, FIG. 11
# Experimental: MiaPaCa-2 tumor cells was maintained in vitro as monolayer culture in DMEM medium supplemented with 10% fetal bovine serum, 2.5% horse serum, 100 Um′ penicillin and 100 μg/ml streptomycin, and 2 mM L-glutamine at 37° C. in an atmosphere of 5% CO2 in air. The tumor cells were routinely subcultured twice weekly by trypsin-EDTA treatment. Cells in an exponential growth phase will be harvested and counted for tumor inoculation. Before orthotopic implantation, 5×10^6 MiaPaca-2 cells in 50 μl PBS mixed with 50 μl Matrigel were inoculated subcutaneously at the right flank of each BALB/c nude mouse. Upon subcutaneous tumor size reaching about 500 mm^3, tumors were collected for orthotopic implantation.
# For orthotopic MiaPaca-2 xenografts, mice were anesthetized by intraperitoneal injection of pentobarbital sodium (50 mg/kg) before tumor inoculation. The abdominal skin was sterilized and laparotomy was performed to expose the pancreas. Each mouse was inoculated with a subcutaneous MiaPaca-2 tumor fragment (2-3 mm in diameter) in the subcapsular region of the pancreas for tumor development. The abdominal wall was closed using No. 6 suture and then sterilized with povidone iodine solution. The day of surgery was denoted as Day 0 (D0). The treatments with vehicle, gemcitabine only, PTD-TFAM only, and PTD-TFAM in combination with gemcitabine were started at 10 days post tumor fragment inoculation. […]
structure (smiles),measurement,value
Nc1ccn([C@@H]2O[C@H](CO)[C@@H](O)C2(F)F)c(=O)n1 [Gemcitabine],MHC I expression,decreased
